Where a name gives a salt, the structure may show the parent alone.
Tests used:
[1] = system: tumor necrosis factor (α); test: Cytokine Induction in Human Cells: tumor necrosis factor; assay type: cell-based; conditions: human PBMC, 18 to 24 hours, tested 30-0.014 μM, TNF by ELISA or IGEN assay; read-out: Lowest Effective Concentration (μM) Tumor Necrosis Factor
Text: (§1) An in vitro human blood cell system is used to assess cytokine induction. Activity is based on the measurement of interferon and tumor necrosis factor (α) (IFN and TNF, respectively) secreted into culture media as described by Testerman et. al. In “Cytokine Induction by the Immunomodulators Imiquimod and S-27609”, Journal of Leukocyte Biology, 58, 365-372 (September, 1995).
(§2) Whole blood from healthy human donors is collected by venipuncture into EDTA vacutainer tubes. Peripheral blood mononuclear cells (PBMC) are separated from whole blood by density gradient centrifugation using Histopaque®-1077. Blood is diluted 1:1 with Dulbecco's Phosphate Buffered Saline (DPBS) or Hank's Balanced Salts Solution (HBSS). The PBMC layer is collected and washed twice with DPBS or HBSS and resuspended at 4×10^6 cells/mL in RPMI complete. The PBMC suspension is added to 48 well flat bottom sterile tissue culture plates (Costar, Cambridge, Mass. or Becton Dickinson Labware, Lincoln Park, N.J.) containing an equal volume of RPMI complete media containing test compound.
(§3) The compounds are solubilized in dimethyl sulfoxide (DMSO). The DMSO concentration should not exceed a final concentration of 1% for addition to the culture wells. The compounds are generally tested at concentrations ranging from 30-0.014 μM.
(§4) The solution of test compound is added at 60 μM to the first well containing RPMI complete and serial 3 fold dilutions are made in the wells. The PBMC suspension is then added to the wells in an equal volume, bringing the test compound concentrations to the desired range (30-0.014 μM). The final concentration of PBMC suspension is 2×10^6 cells/mL. The plates are covered with sterile plastic lids, mixed gently and then incubated for 18 to 24 hours at 37° C. in a 5% carbon dioxide atmosphere.
(§5) Following incubation the plates are centrifuged for 10 minutes at 1000 rpm (˜200× g) at 4° C. The cell-free culture supernatant is removed with a sterile polypropylene pipet and transferred to sterile polypropylene tubes. Samples are maintained at −30 to −70° C. until analysis. The samples are analyzed for interferon (α) by ELISA and for tumor necrosis factor (α) by ELISA or IGEN Assay
Tumor necrosis factor (α) (TNF) concentration is determined using ELISA kits available from Biosource International, Camarillo, Calif. Alternately, the TNF concentration can be determined by Origen® M-Series Immunoassay and read on an IGEN M-8 analyzer from IGEN International, Gaithersburg, Md. The immunoassay uses a human TNF capture and detection antibody pair from Biosource International, Camarillo, Calif. Results are expressed in pg/mL.
(§6) The table below lists the lowest concentration found to induce interferon and the lowest concentration found to induce tumor necrosis factor for each compound.

interferon (α) = test: Cytokine Induction in Human Cells: interferon; assay type: cell-based; conditions: human PBMC, 18 to 24 hours, tested 30-0.014 μM, interferon (α) by ELISA; read-out: Lowest Effective Concentration (μM) Interferon
Text: as §1, §2, §3, §4, §5
Interferon (α) concentration is determined by ELISA using a Human Multi-Species kit from PBL Biomedical Laboratories, New Brunswick, N.J. Results are expressed in pg/mL.
as §6

Compound	melting point [°C]	minimal effective concentration [1] [µM]	minimal effective concentration (interferon (α)) [µM]
Cc1nc2c(N)nc3c(c2n1CCCCS(=O)(=O)C(C)(C)C)CCCC3 [Example 78, 2-methyl-1-{4-[(1,1-dimethylethyl)sulfonyl]butyl}-6,7,8,9-tetrahydro-1H-imidazo[4,5-c]quinolin-4-amine]	208 to 210	–	–
CCCCS(=O)(=O)CCCCn1c(CC)nc2c(N)nc3ccccc3c21 [Example 50]	–	1.11	0.37
CCc1nc2c(N)nc3ccccc3c2n1CCCCSc1cc(Cl)cc(Cl)c1 [Example 44]	–	10	1.11
CCc1nc2c(N)nc3ccccc3c2n1CCCCS(=O)(=O)c1cc(Cl)cc(Cl)c1 [Example 46]	–	0.37	0.12
CCCCSCCCCn1c(CC)nc2c(N)nc3ccccc3c21 [Example 48]	–	0.12	0.014
CCCCc1nc2c(N)nc3ccccc3c2n1CCS(=O)(=O)c1ccc(F)cc1 [Example 58]	–	1.11	1.11
Cc1nc2c(N)nc3c(c2n1CCCCS(C)(=O)=O)CCCC3 [Example 74, 2-methyl-1-[4-(methylsulfonyl)butyl]-6,7,8,9-tetrahydro-1H-imidazo[4,5-c]quinolin-4-amine]	213 to 216	–	–
CCc1nc2c(N)nc3ccccc3c2n1CCCCS(=O)(=O)C1CCCCC1 [Example 55]	–	1.11	0.12
CCCCc1nc2c(N)nc3ccccc3c2n1CCCCSc1ccc(F)cc1 [Example 41]	–	0.37	0.37
CCCCc1nc2c(N)nc3ccccc3c2n1CCSCC(C)C [Example 63]	–	0.04	0.04
CCCCc1nc2c(N)nc3ccccc3c2n1CCS(=O)(=O)c1ccccc1 [Example 57]	–	1.11	1.11
CCCCc1nc2c(N)nc3ccccc3c2n1CCS(=O)(=O)CC [Example 66]	–	0.12	0.12
CCc1nc2c(N)nc3ccccc3c2n1CCCCS(=O)(=O)C(C)C [Example 52]	–	1.11	0.37
CCc1nc2c(N)nc3ccccc3c2n1CCCCS(=O)(=O)C1CCCC1 [Example 45]	–	1.11	0.37
Cc1nc2c(N)nc3c(c2n1CCCCCS(C)(=O)=O)CCCC3 [Example 75, 2-methyl-1-[5-(methylsulfonyl)pentyl]-6,7,8,9-tetrahydro-1H-imidazo[4,5-c]quinolin-4-amine]	172 to 174	–	–
CCCCc1nc2c(N)nc3ccccc3c2n1CCCCS(=O)(=O)c1ccc(F)cc1 [Example 42]	–	0.12	0.12
CCCCc1nc2c(N)nc3ccccc3c2n1CCS(=O)(=O)C(C)C [Example 56]	–	0.37	0.37
CCCCc1nc2c(N)nc3c(c2n1CCSc1ccccc1)CCCC3 [Example 2, 2-butyl-1-[2-(phenylthio)ethyl]-6,7,8,9-tetrahydro-1H-imidazo[4,5-c]quinolin-4-amine Hydrochloride]	–	0.37	0.12
CCCc1nc2c(N)nc3ccccc3c2n1CCCCS(C)(=O)=O [Example 30, 1-[4-(methylsulfonyl)butyl]-2-propyl-1H-imidazo[4,5-c]quinolin-4-amine]	–	3.33	0.37

Compound	melting point [°C]	minimal effective concentration [1] [µM]	minimal effective concentration (interferon (α)) [µM]
CCCCc1nc2c(N)nc3ccccc3c2n1CCCCS(=O)(=O)CC [Example 39]	–	0.04	0.04
Cc1nc2c(N)nc3c(c2n1CCCCS(=O)(=O)C(C)C)CCCC3 [Example 76, 2-methyl-1-{4-[(1-methylethyl)sulfonyl]butyl}-6,7,8,9-tetrahydro-1H-imidazo[4,5-c]quinolin-4-amine]	177 to 178	–	–
CCc1nc2c(N)nc3ccccc3c2n1CCCCSC1CCCCC1 [Example 47]	–	3.33	0.37
CCc1nc2c(N)nc3ccccc3c2n1CCCCCS(C)(=O)=O [Example 13, 2-ethyl-1-[5-(methylsulfonyl)pentyl]-1H-imidazo[4,5-c]quinolin-4-amine]	–	3.33	0.12
CCCCc1nc2c(N)nc3ccccc3c2n1CCSCC [Example 65]	–	0.04	0.01
CCc1nc2c(N)nc3ccccc3c2n1CCCCSc1ccc(Cl)cc1 [Example 49]	–	1.11	0.37
Cc1nc2c(N)nc3c(c2n1CCCCS(=O)(=O)c1ccc(F)cc1)CCCC3 [Example 77, 2-methyl-1-{4-[(4-fluorophenyl)sulfonyl]butyl}-6,7,8,9-tetrahydro-1H-imidazo[4,5-c]quinolin-4-amine]	159 to 162	–	–
CCCCc1nc2c(N)nc3ccccc3c2n1CCS(=O)(=O)CC(C)C [Example 64]	–	0.12	0.12
CCCCc1nc2c(N)nc3c(c2n1CCSc1ccccc1)CCCC3 (as salt: hydrochloride) [Example 2, 2-butyl-1-[2-(phenylthio)ethyl]-6,7,8,9-tetrahydro-1H-imidazo[4,5-c]quinolin-4-amine Hydrochloride]	237 to 238	–	–
CCc1nc2c(N)nc3ccccc3c2n1CCCCSc1ccc(F)cc1 [Example 51]	–	1.11	0.12
CCc1nc2c(N)nc3ccccc3c2n1CCCCSC(C)C [Example 43]	–	0.37	0.014
CCCCc1nc2c(N)nc3ccccc3c2n1CCS(=O)(=O)CCC [Example 62]	–	0.37	0.12
CCCCc1nc2c(N)nc3ccccc3c2n1CCCCSC(C)(C)C [Example 40]	–	0.01	0.01
CCSCCCCn1c(CC)nc2c(N)nc3ccccc3c21 [Example 53]	–	0.37	0.04
CCCCc1nc2c(N)nc3ccccc3c2n1CCSCCC [Example 61]	–	0.12	0.04
CCCCc1nc2c(N)nc3ccccc3c2n1CCS(=O)(=O)C(C)(C)C [Example 60]	–	0.37	0.37
CCCCc1nc2c(N)nc3ccccc3c2n1CCCCCS(C)(=O)=O [Example 11, 2-butyl-1-[5-(methylsulfonyl)pentyl]-1H-imidazo[4,5-c]quinolin-4-amine]	–	0.12	0.01
CCc1nc2c(N)nc3ccccc3c2n1CCCCS(=O)(=O)CC [Example 54]	–	1.11	0.37
CCCCc1nc2c(N)nc3ccccc3c2n1CCSC(C)(C)C [Example 59]	–	0.04	0.01
